The results in this text go back to patent US9238632B2, “3-cyanoanilinoalkylarylpiperazine derivative and use thereof in preparing drugs” (NHWA Pharma. Corporation, priority 2012, dated 2016).

The test system of data set [1] is Salmonella typhimurium histidine auxotrophic mutants TA97, TA98, TA100 and TA102. Put plainly: Bacterial reverse mutation test (Ames test). The settings on record: −S9 and +S9, all dosages. On the procedure: Strains: Salmonella typhimurium histidine auxotrophic mutants TA97, TA98, TA100 and TA102.
Results: the experiments include two parts of −S9 and +S9. In the test system without S9, TA98 5000 μg/dish has antibacterial activity, and in the test system with S9, TA97 5000 μg/dish has antibacterial activity. Other dosages have no antibacterial activity to any of the strains, and the growth background is excellent. […] Ames test is negative.

For another data set, the target named is T1, 5-HT1A receptor (Rattus norvegicus, UniProt P19327).
T1 construct: The supernatant is discarded and the precipitate (membrane receptor) is stocked; from tissue; host or cells: SD rat cerebral cortex membranes
T1 sequence (P19327 1-422): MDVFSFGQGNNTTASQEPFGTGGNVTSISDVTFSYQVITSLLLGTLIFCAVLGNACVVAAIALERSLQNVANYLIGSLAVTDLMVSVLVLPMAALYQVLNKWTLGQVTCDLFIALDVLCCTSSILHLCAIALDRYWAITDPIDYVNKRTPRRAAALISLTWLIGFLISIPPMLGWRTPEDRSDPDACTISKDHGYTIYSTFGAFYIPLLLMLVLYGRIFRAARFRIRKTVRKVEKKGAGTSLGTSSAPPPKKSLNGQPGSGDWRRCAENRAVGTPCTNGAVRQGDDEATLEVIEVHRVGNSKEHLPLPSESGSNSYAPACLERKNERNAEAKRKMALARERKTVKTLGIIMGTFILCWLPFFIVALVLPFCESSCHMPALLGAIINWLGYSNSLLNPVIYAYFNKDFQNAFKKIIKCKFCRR
Put plainly: In vitro competitive binding test to 5-HT1A receptor ([3H]-8-OH-DPAT, rat cerebral cortex membranes). Conditions: 10 μmol/L compound; hydrochloride salts; rat cerebral cortex membrane; unit (I %); read-out: 5-HT1A affinity [3H]-8-OH-DPAT (inhibition rate of radioligand binding). On the procedure:
(§1) Animals: clean grade SD rats, female and male, 250-300 g, purchased from Nanjing QingLongshan animal breeding center.
(§2) Radioligand: [^3H]-8-OH-DPAT, [^3H]-Ketanserin, purchased from PerkinElmer company; 5-HT and Methysergide, purchased from Sigma company.
Preparation of 5-HT1A buffer solution: Tris-HCl buffer solution (0.05M, 1000 ml) is added with certain amount of ascorbic acid, pargyline and CaCl2, to give final concentrations of 0.1%(ascorbic acid), 10 um (pargyline) and 4 mM (CaCl2) separately.
(§3) Preparation of radioligand: 50 μl mother liquor is diluted to 5 ml with anhydrous ethanol, and stocked for use.
(§4) Preparation of non-labeling ligand: appropriate amounts of 5-HT and Methysergide are dissolved in ultrapure water to give solutions with final concentrations of 2*10^−5M respectively.
(§5) Preparation of solutions of various test drugs: appropriate amount of each drug is first diluted to 1 ml with ultrapure water as stock solution. When needed, 10 μl of the stock solution is diluted to 1 ml to reach a level of 10^−5M.
(§6) Rats are decapitated to get the brains. The target tissues (left and right cerebral cortex) are separated on ice, added with 10-fold volume (V/W) of ice-cold buffer, and homogenized with tissue Homogenizer for several seconds 3 times to form tissue homogenate. The tissue homogenate is centrifuged with low temperature superb centrifuge (12000 r/min) 3 times, with each for 20 minutes. The supernatant is discarded and the precipitate (membrane receptor) is stocked in −80° C. ultralow temperature freezer.
(§7) The membrane receptor is added with certain volume of ice-cold buffer and homogenized to make membrane receptor solutions at certain concentrations.
(§8) Various reaction solutions are added in the following sequences and ratios:
(§9) Total binding tube: 100 μl membrane receptor+100 μl buffer+10 μl radioligand
(§10) Non-specific tube: 100 μl membrane receptor+100 μl non-labeling ligand+10 μl radioligand
(§11) Test compound tube: 100 μl membrane receptor+100 μl drug solution+10 μl radioligand
(§12) Above tubes are put in 37° C. water bath immediately after finishing adding radioligand into each of them and then incubated for 25 min. After 25 min, the tubes are put in ice water to quench the reaction. Each tube is poured into suction filtration device to filter, and the filter membrane is washed with 5-10 ml ice-cold buffer twice. The filter membrane is dried in 85° C. oven, and then put into test tubes, and added with certain amount of scintillation liquid to soak overnight. Radioactivity is determined using liquid scintillation counter.
(§13) Each compound is tested in duplicate, and the tests are carried out independently twice.

For a further data set, the target named is hSERT (Homo sapiens, UniProt P31645). Put plainly: In vitro inhibition of serotonin reuptake ([3H]-5-HT) in cells stably expressing hSERT. Conditions: for inhibition at 10 µM: read-out: Inhibition rates of SERT reuptake [3H]-5-HT.
hSERT, sequence (P31645 whole entry): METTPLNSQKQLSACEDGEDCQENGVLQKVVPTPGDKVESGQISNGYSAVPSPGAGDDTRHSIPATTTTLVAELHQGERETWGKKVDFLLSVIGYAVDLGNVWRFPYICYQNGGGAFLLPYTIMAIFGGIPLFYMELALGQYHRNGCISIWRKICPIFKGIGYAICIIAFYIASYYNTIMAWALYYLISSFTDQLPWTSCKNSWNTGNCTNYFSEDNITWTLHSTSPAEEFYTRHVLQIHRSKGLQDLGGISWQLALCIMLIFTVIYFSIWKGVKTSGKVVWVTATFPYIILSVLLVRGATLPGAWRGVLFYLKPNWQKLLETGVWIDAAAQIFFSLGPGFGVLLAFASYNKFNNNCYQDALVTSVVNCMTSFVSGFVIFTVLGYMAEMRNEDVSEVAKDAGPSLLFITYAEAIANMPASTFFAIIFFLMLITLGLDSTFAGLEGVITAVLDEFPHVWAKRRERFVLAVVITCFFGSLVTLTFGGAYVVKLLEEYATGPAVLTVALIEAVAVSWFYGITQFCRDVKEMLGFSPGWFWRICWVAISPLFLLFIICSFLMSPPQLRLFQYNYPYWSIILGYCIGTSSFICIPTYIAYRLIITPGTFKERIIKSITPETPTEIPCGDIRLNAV
The next data set deals with T2, 5-HT2A receptor (Rattus norvegicus, UniProt P14842).
T2 construct: The supernatant is discarded and the precipitate (membrane receptor) is stocked; from tissue; host or cells: SD rat cerebral cortex membranes
T2 sequence (P14842 whole entry): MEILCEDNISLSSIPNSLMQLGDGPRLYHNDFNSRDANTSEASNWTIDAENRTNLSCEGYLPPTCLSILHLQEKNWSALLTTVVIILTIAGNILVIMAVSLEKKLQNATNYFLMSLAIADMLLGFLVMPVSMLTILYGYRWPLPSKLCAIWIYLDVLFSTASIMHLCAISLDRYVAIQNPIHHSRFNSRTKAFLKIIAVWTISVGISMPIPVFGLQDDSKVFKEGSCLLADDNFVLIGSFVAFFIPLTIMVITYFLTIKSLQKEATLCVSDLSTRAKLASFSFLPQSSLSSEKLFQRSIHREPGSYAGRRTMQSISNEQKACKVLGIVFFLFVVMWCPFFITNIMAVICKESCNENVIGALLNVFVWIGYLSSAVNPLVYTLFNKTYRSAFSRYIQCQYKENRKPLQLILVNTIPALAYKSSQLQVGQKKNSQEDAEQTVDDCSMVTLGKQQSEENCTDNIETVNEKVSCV
Nature of the data set: In vitro competitive binding test to 5-HT2A receptor ([3H]-Ketanserin, rat cerebral cortex membranes). The settings on record: 10 μmol/L compound; hydrochloride salts; rat cerebral cortex membrane; unit (I %); read-out: 5-HT2A affinity [3H]-Ketanserin (inhibition rate of radioligand binding). On the procedure: as §1, §2
Preparation of 5-HT2A buffer solution: Tris (6.05 g) is dissolved in ultrapure water (1000 ml). PH is adjusted to 7.4 with HCl. Tris-HCl buffer solution (0.05M) is used.
as §3, §4, §5, §6, §7, §8, §9, §10, §11, §12, §13

The nature of data set [2]: Acute toxicity study, single drench to mice (LD50, Bliss method). The settings on record: mouse, in vivo, oral, hydrochloride. From the text: Bliss method is used for statistics.
The subject of data set [3] is rat formalin induced pain model. Nature of the data set: Rat formalin induced pain model (leg-raising times). In kind it is in vivo, SD rats. Conditions: formalin 1 h later, Mean ± SD, n=10. From the text: Rat formalin induced pain model is used to test in vivo analgesic effect of hydrochloride of compound III-10.
Rat formalin induced pain model is established by Dubuisson and Dennis in 1977. It can simulate some characteristics of human pains after damages, and its persistent tension pain is similar to common clinical chronic pains. Its experimental results have excellent repeatability, and it is considered to be universally accepted pain model which is more reliable than short-term mechanical or thermal stimulation models. It has been generally used in investigation and determination of pain mechanism, pain physiology and pharmacology, screening of the analgesic effects of drugs and evaluation of analgesic drugs.
Test compounds are prepared to relevant doses with 0.5% CMC-Na before use.
Formaldehyde solution: batch number HN20041109, HuaDong reagent industrial company. In experiment, it is diluted to 5% formaldehyde solution with 0.9% sodium chloride injection.
90 SD rats of weight (240-350 g), half female and half male, are fed for I week to adapt the environment, with 5 in each cage during feeding, the rats are fed under standard condition during experiments with free access to water and food.
90 SD rats of weight 240-350 g are randomly divided into 9 groups which are negative control group, model group, gabapentin group, high, median and low dosage group of each compound respectively, with 10 rats in each group, half female and half male. Relevant test compounds are given by intragastric administration, and 5% formalin (50 ul) is subcutaneously injected at the left rear foot in 1 h to model, formation of pichu indicates a successful modeling. 0.5% (weight percentage) CMC-Na is given by intragastric administration in negative control group, and normal saline (50 ul) is subcutaneously injected at the bottom of right rear foot in 1 h. After modeling, the leg-raising times in 1-2 minutes and 5-6 minutes are observed. The time period 10-60 minutes are divided into 5 minutes intervals, and the leg-raising times of the first minute of each interval (10-11, 15-16, 20-21, 25-26, 30-31, 35-36, 40-41, 45-46, 50-51, 55-56, 60-61) are observed.
Measuring index is expressed as mean±standard deviation (Mean±SD), comparison is analyzed with One-way ANOVA.

Description for hSERT: Positive control compound: fluoxetine.
Sample treatment: about 1 mg of compound is weighted and added with relative amount of DMSO to prepare 10^−2M stock solution. Before use, the stock solution is diluted with HBSS buffer to relative concentrations. Each sample is dissolved in DMSO completely. The dilution is clear and without obvious cloudy and formation of precipitate after adding with buffer.
(1) Cells which can stably express hSERT are seeded into 24-well plates respectively.
(2) Experiments are started when the cell confluence reaches 80-90%.
(3) Liquids in the plates are discarded, the plates are washed with PBS twice at room temperature.
(5) Plates are incubated at 37° C. for 10 min after slight oscillation.
(6) Then 20 μl radioisotope is added (cpm: about 20000).
(7) Plates are incubated at 37° C. for 5 min after slight oscillation.
(8) Liquids in the plates are discarded, the plates are washed with ice-cold PBS twice, all the liquids in the plates are removed away.
(9) NaOH (2M, 100 μl) is added into each well to lyse the cells. All the lysates are combined and put on GF/C glass fiber filter paper.
(10) The filter papers are dried and put in 0.5 ml centrifuge tube, 500 μl lipid soluble scintillation liquid are added. Radioactivity is determined by MicroBeta liquid scintillation counter. Each concentration is tested intriplicate, and tests are carried out independently twice.
Test concentration is 10 μmol/L. The positive drug provided is set as control (10 μmol/L) in each experiment. The experimental processes are the same as the above process.

As to `CN(CCCN1CCN(c2cccc(C(F)(F)F)c2)CC1)c1cccc(C#N)c1` [III-8, 3-(methyl(3-(4-(3-trifluoromethylphenyl)piperazin-1-yl)propyl)amino)benzonitrile], the “Ames test (colony reverse mutations)” value in data set [1] is on record as “negative”. Besides, at 5-HT1A receptor, the inhibition at 10 µM was 108%. For the same molecule, at hSERT, the concentration for half-maximal inhibition (IC50) was found to be 0.246 ± 0.094 µM, the “inhibition effect to 5-HT reuptake compared with fluoxetine” value is recorded as “comparable to that of fluoxetine” and the inhibition at 10 µM came out at 98.3%. Also, on 5-HT2A receptor, the inhibition at 10 µM was determined as 111%. This molecule also came in with an LD50 in data set [2] of 1800 mg/kg.

As for `CN(CCCN1CCN(c2cccc(Cl)c2)CC1)c1cccc(C#N)c1` [III-10, 3-((3-(4-(3-chlorophenyl)piperazin-1-yl)propyl)methylamino)benzonitrile], in data set [1], the “Ames test (colony reverse mutations)” value is given as “negative”. Moreover, the inhibition at 10 µM on 5-HT1A receptor is 109%; on hSERT it was 94.3%; on 5-HT2A receptor it was 145%. Also, the “phase I times (leg-raising times)” value was 21.23 ± 11.24 time in data set [3] (40 mg/kg intragastric) and 21.90 ± 15.48 time in data set [3] (160 mg/kg intragastric). On hSERT, this molecule displayed an IC50 of 0.138 ± 0.035 µM. In addition, the “inhibition effect to 5-HT reuptake compared with fluoxetine” value on hSERT was “more potent than that of fluoxetine”. For the same molecule, in data set [2], the LD50 was 1500 mg/kg.

Broadly, the inhibition is the change of the read-out against control, counted positive when it falls. The IC50 is the concentration that gives 50% inhibition. A high value points to a need for much substance. One may read the LD50 as the dose expected to kill half of the subjects tested. A higher LD50 goes with lower toxicity.
